Source: US20180207138A1, “METHODS FOR THE TREATMENT OF TREMORS BY POSITIVE MODULATION OF SK CHANNELS” (Cadent Therapeutics, Inc., priority 2017, published 2018)
Like-named read-outs stand apart in the source and are kept apart here.

What was measured:
Harmaline-induced tremor [1] = details: for inhibition of tremors (tremor events): FIG. 1; for Minimally Efficacious Dose: oral dosing 30 min before 10 mg/Kg ip Harmaline, tremor events over 60 min
Experimental: The structure of each of these compounds is duplicated below.
Animals were administered with either Vehicle or compound (orally) 30 minutes prior to Harmaline administration (t=−30 minutes). Animals were then dosed ip with 10 mg/Kg Harmaline HCl in isotonic saline (t=0 minutes). Immediately following Harmaline administration, animals were monitored for 1 hour (t=0-60 minutes) to quantify the number of tremor events.
Tremor events were quantified via automated capture of forelimb tremor activity and confirmed by visual observation. Prior to testing, animals were fitted with a small metal band (0.5 g) on the right forepaw and acclimated to the testing apparatus for one hour. Immediately following Harmaline administration, animals were placed in the testing apparatus and tremor events were quantified for 60 minutes. A tremor event signal was generated when the transmitter band on the animal moved within the electromagnetic field generated by a loop antenna within the testing apparatus. Outputs from the amplifier were digitized at a sampling rate of 1,000 Hz and the signal was processed and analyzed using LabView software (National Instruments). […] Data were analyzed in one-minute bins over the course of the test and presented as the sum of tremor events over the entire 60 minute test.

[2] = male, Sprague Dawley, rat, in vivo; for Measured Brain Concentration: po
Experimental: (§1) It is calculated as follows: CFB=CMB×BFF, where CMB is the concentration of compound measured by mass spectrometry from brains harvested immediately following tremor recording (Table 1, “Measured Brain Concentration”). CFB is the amount of free compound not complexed with protein and therefore free to interact with the SK2 channel (Table 1, “Calculated Free Brain Concentration”). BFF is average free fraction of compound as measured by equilibrium dialysis (Table 1, “Brain Free Fraction”). This was performed by using 1 μM of compound with 10% brain tissue homogenate in phosphate buffer saline. Incubation time was 5 hours at 37° C. and detection was by LC-MS/MS. Reference compound was carbazepine. Free drug in brain available to interact with SK2 channels (CFB) is arrived at by multiplying the measured total brain level (CMB) by the average free fraction (BFF).

in vitro = details: brain homogenate
Experimental: as §1

harmaline-induced tremor [3] = details: for tremor, power spectrum in 10-14 Hz band: 5 mg/kg ip harmaline, 30 minutes; for percent Motion Power (% MP): FIG. 3
Experimental: Whole body tremor was measured by a San Diego Instruments Tremor Monitor (San Diego, Calif., USA). […] Tremor was measured for 30 minutes following harmaline administration, and data were analyzed by fast Fourier transform and reported as a frequency power spectrum. […] Data were further analyzed by calculating the percent Motion Power (% MP), defined as the power in the 9-13 Hz band divided by the total power across the spectrum (0-30 Hz) multiplied by 100.

Structure (SMILES)	inhibition of tremors (tremor events) (Harmaline-induced tremor [1]; 60 mg/Kg orally)	Minimally Efficacious Dose (Harmaline-induced tremor [1]) [mg/kg]	Calculated Free Brain Concentration [2] [µM]	Measured Brain Concentration [2] [µM]	fraction unbound at 5 h, 1 μM (in vitro)	inhibition of tremors (tremor events) (Harmaline-induced tremor [1]; 30 mg/Kg orally)	tremor, power spectrum in 10-14 Hz band (harmaline-induced tremor [3]; 3 mg/kg orally)	percent Motion Power (% MP) (harmaline-induced tremor [3]; 3 mg/kg orally, n=8, P<0.01 vs harmaline+vehicle)	tremor, power spectrum in 10-14 Hz band (harmaline-induced tremor [3]; 10 mg/kg orally)	percent Motion Power (% MP) (harmaline-induced tremor [3]; 10 mg/kg orally, n=16, P<0.05 vs harmaline+vehicle)	tremor, power spectrum in 10-14 Hz band (harmaline-induced tremor [3]; 30 mg/kg orally)	percent Motion Power (% MP) (harmaline-induced tremor [3]; 30 mg/kg orally, n=13, P<0.05 vs harmaline+vehicle)
Cc1cc(C)n(-c2nc(NC3CCC(F)(F)CC3)cc(N3CCOCC3)n2)n1 [Compound 1]	significant inhibition of tremors	60	0.15	3.1	0.048	–	–	–	–	–	–	–
Cc1ccn(-c2nc(NC3CCC(F)(F)CC3)cc(N3CCOCC3)n2)n1 [Compound 2]	–	30	0.08	1.3	–	significant inhibition of tremors	significantly reduced tremor	significantly reduced harmaline-induced tremor	significantly reduced tremor	significantly reduced harmaline-induced tremor	significantly reduced tremor	significantly reduced harmaline-induced tremor
